Results as given in US20130123345A1, “METHOD OF TREATING A VIRAL INFECTION D[…] […] ADENOSINE RECEPTOR PATHWAY” (THE OHIO STATE UNIVERSITY, priority 2010, published 2013).

How the values were obtained:
influenza-infected mice [1] = assay: Influenza-induced loss of body weight in treated infected mice; format: in vivo, mouse
Method: (§1) The pharmacologic blockade of CD73 with APCP (5′-(α,β-methylene)diphosphate) reduces BALF adenosine levels and thereby ameliorates acute lung injury in influenza-infected mice. We investigated effects of daily gavage with APCP (20 mg/kg, in 200 μl saline) on body weight, arterial O2 saturation (SpO2; measured in conscious mice with the MouseOx pulse oximetry system) and survival in 2 groups of 10 individually-marked influenza-infected mice, and compared these animals to mock-infected and untreated influenza-infected mice. […] (FIG. 4C). In fact, 20% of APCP-treated mice survived infection, whereas all untreated mice died. Importantly, APCP gavage had no effect on lung homogenate virus titers at 2 d.p.i. (not shown).
(§2) A1-AdoR activation is pro-inflammatory in influenza infection and pharmacologic blockade of A1-AdoR with the prototypical A1-AdoR antagonist DPCPX (8-Cyclopentyl-1,3-diproopylxanthine) ameliorates adenosine-induced acute lung injury in influenza-infected mice. Influenza-infected mice were treated with DPCPX (1 mg/kg/day), administered by implanted osmotic minipump (Alzet). The effects of this A1-AdoR antagonist on body weight, arterial O2 saturation (measured by pulse oximetry) and survival were investigated in 2 groups of 10 individually-marked influenza-infected mice. For some outcome measures, we also evaluated the effect of daily administration of the A2b-AdoR antagonist enprofylline (4 mg/kg I.P., in 100 μl 10% ethanol in saline; EMD Biosciences), to determine whether A2b-AdoR blockade also modulates influenza outcomes. […] 10% of DPCPX-treated mice survived infection. […] (not shown). […] (not shown).
(§3) Mice were infected intranasally with 50 μl influenza A/WSN/33 under 3% isoflurane anesthesia. Mock-infected animals received 50 μl of virus diluent (PBS with 0.1% BSA). In some experiments, mice were individually marked and weighed daily.

influenza-infected mice [2] = assay: Arterial O2 saturation (SpO2) by MouseOx pulse oximetry, peripheral hypoxemia; format: in vivo, mouse
Method: as §1, with “Importantly, APCP gavage had no effect on lung homogenate virus titers at 2 d.p.i. (not shown).” left out
A1-AdoR activation is pro-inflammatory in influenza infection and pharmacologic blockade of A1-AdoR with the prototypical A1-AdoR antagonist DPCPX (8-Cyclopentyl-1,3-diproopylxanthine) ameliorates adenosine-induced acute lung injury in influenza-infected mice. […] The effects of this A1-AdoR antagonist on body weight, arterial O2 saturation (measured by pulse oximetry) and survival were investigated in 2 groups of 10 individually-marked influenza-infected mice. For some outcome measures, we also evaluated the effect of daily administration of the A2b-AdoR antagonist enprofylline (4 mg/kg I.P., in 100 μl 10% ethanol in saline; EMD Biosciences), to determine whether A2b-AdoR blockade also modulates influenza outcomes. […]

influenza A/WSN/33 = assay: Lung homogenate virus titers; format: in vivo, mouse
Method: as §1, §2

influenza-infected mice [3] = assay: Mortality / survival of treated influenza-infected mice; format: in vivo, mouse
Method: as §1, §2, §3

influenza-infected mice [4] = assay: Total BAL cell counts (pulmonary inflammation); format: in vivo, mouse; details: 6 d.p.i.; 1 mg/kg/day by osmotic minipump
Method: as §2
Following removal of the left lung, the right lung was lavaged in situ with 0.5 ml of sterile saline. […] Numbers of viable alveolar macrophages, lymphocytes, and polymorphonuclear cells were calculated from total leukocytes (counted using a hemocytometer with 0.4% trypan blue exclusion to assess viability) and differential counts of Diff-Quik-stained cytocentrifuge preparations. […] BAL protein and LDH content were determined by standard colorimetric assays.

[5] = system: BALB/c mice infected with influenza A/WSN/33; assay: Heart rate (bradycardia) by pulse oximetry in influenza-infected mice; format: in vivo; details: 6 days infection, 10,000 PFU/mouse; systemic treatment
influenza-infected mice [6] = assay: Lung water content (wet:dry weight ratio); format: in vivo, mouse; details: 6 d.p.i.
Method: as §2
The right lung was removed weighed, dried in an oven at 55° C. for 5 days, then reweighed. Wet-to-dry weight ratio provides an index of intrapulmonary fluid accumulation.

[7] = system: influenza H1N1 virus (A/WSN/33) infected BALB/c mice; assay: Alveolar fluid clearance in influenza-infected mice (compound added to fluid clearance instillate); format: in vivo, mouse; details: 2 d.p.i., 10 μM in fluid clearance instillate, 30-min ventilation period
[8] = 1 mg/kg/day by implanted osmotic minipump

Question: What does the source list for 5′-(α,β-methylene)diphosphate [APCP]?
Answer: influenza-induced loss of body weight (influenza-infected mice [1]; daily gavage 20 mg/kg in 200 μl saline): no significant effect; onset of peripheral hypoxemia (SpO2) (influenza-infected mice [2]; daily gavage 20 mg/kg, conscious mice): significantly delayed; lung homogenate virus titers (influenza A/WSN/33; 2 d.p.i., daily gavage 20 mg/kg): no effect; treated mice that survived infection (influenza-infected mice [3]; daily gavage 20 mg/kg, all untreated mice died): 20%; mortality (delay) (influenza-infected mice [3]; daily gavage 20 mg/kg, vs untreated infected mice): significantly delayed mortality

Question: Which influenza-induced weight loss (influenza-infected mice [1]; [8]) does the source give for CCCn1c(=O)c2[nH]c(C3CCCC3)nc2n(CCC)c1=O [DPCPX, 8-cyclopentyl-1,3-dipropylxanthine] here?
Answer: The influenza-induced weight loss was “neither DPCPX nor enprofylline had any significant effect”.

Question: What about the “onset of peripheral hypoxemia” value (influenza-infected mice [2]; [8]) of the same molecule?
Answer: Its value is “significantly delayed”.

Question: What about the “lung homogenate virus titers” value (influenza A/WSN/33; 6 d.p.i., 1 mg/kg/day by osmotic minipump) of the same molecule?
Answer: The value was “Neither DPCPX nor enprofylline had any effect”.

Question: What about the “total BAL cell counts” value (influenza-infected mice [4]) of the same molecule?
Answer: The value was “significant reduction”.

Question: And the “influenza-induced bradycardia (heart rate)” value [5]?
Answer: The value was “reversed”.

Question: And the “lung water content (wet:dry weight ratio)” value (influenza-infected mice [6]; 1 mg/kg/day by osmotic minipump)?
Answer: The value was “significantly reduced”.

Question: What about the “mortality (delay)” value (influenza-infected mice [3]; [8]) of the same molecule?
Answer: Its value is “significantly delayed mortality”.

Question: And the “treated mice that survived infection” value (influenza-infected mice [3]; [8])?
Answer: Its value is 10%.

Question: Which “WSN virus-induced suppression of alveolar fluid clearance” value [7] does the source give for N#CC(=C(N)Sc1ccccc1N)C(C#N)=C(N)Sc1ccccc1N [U0126, 1,4-diamino-2,3-dicyano-1,4-bis[2-aminophenylthio] butadiene] here?
Answer: The value was “reversed”.

Question: How did the influenza-induced weight loss (influenza-infected mice [1]; daily 4 mg/kg I.P. in 100 μl 10% ethanol in saline) turn out when CCCn1c(=O)[nH]c(=O)c2[nH]cnc21 [enprofylline] was run?
Answer: The influenza-induced weight loss was “neither DPCPX nor enprofylline had any significant effect”.

Question: And the “lung homogenate virus titers” value (influenza A/WSN/33; 6 d.p.i., daily 4 mg/kg I.P.)?
Answer: Its value is “Neither DPCPX nor enprofylline had any effect”.

Question: What about the “lung water content (wet:dry weight ratio)” value (influenza-infected mice [6]; daily 4 mg/kg I.P.) of the same molecule?
Answer: The value was “no such effect”.

Question: How did the “WSN virus-induced suppression of alveolar fluid clearance” value [7] turn out when CNCCC(Oc1ccc(C(F)(F)F)cc1)c1ccccc1 (stereo not drawn) [fluoxetine] was run?
Answer: The value was “reversed”.
